The values that follow come from PubChem BioAssay (NCI).

What all share (test): inhibition of tumour cell growth, NCI panel, 48 h
Assay [1] has as its system HCT-116 colon.
The test system of assay [2] is A549 NSCLC.
Assay [3] concerns M14 melanoma.
Assay [4] has as its system SK-MEL-5 melanoma.
Assay [5] relates to CAKI-1 renal.
The test system of assay [6] is U251 CNS.
Assay [7] relates to NCI-H23 lung.
For assay [8], the system named is SF-268 CNS.
Assay [9] has as its system HOP-62 NSCLC.
Assay [10] deals with SF-539 CNS.

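Dose response: 5 concentrations. Exposure: 48 h. Format: 96-well plates. Endpoint: linear interpolation; highest concentration if not reached. Abbreviation: GI50, concentration required for 50% inhibition of growth. TGI marks complete inhibition of growth.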

Consider `CC1(C)CCOC(Sc2ccccc2)C1` (stereo not drawn), for which the TGI is more than 100 µM in assay [1]; more than 100 µM in assay [2]; more than 100 µM in [3]; 52.9 µM in [4]; more than 100 µM in assay [5]; more than 100 µM in assay [6]. Also, the TGI in assay [7], in assay [8] and in [9] was more than 100 µM throughout.
As for `COc1cc2c(cc1OCCCN1CCN(CCCOc3cc4c(cc3OC)C(=O)N3C[C@H](F)C[C@H]3C=N4)CC1)N=C[C@@H]1C[C@@H](F)CN1C2=O`, the GI50 was 0.034 µM in [1]; 0.0441 µM in assay [3]; 0.0683 µM in assay [5]; 0.0255 µM in assay [7]; 0.0248 µM in [8]; 0.0216 µM in assay [10]. Further, the GI50 in [9] was 0.013 µM. Besides, the TGI came out at 0.252 µM in assay [1]; 0.198 µM in assay [3]; 2 µM in assay [5]; 0.209 µM in assay [7]; 5.94 µM in [8]; 1.23 µM in assay [10]. In assay [9], this molecule yielded a TGI of 0.0418 µM.
On to `CC[C@@]1(O)C(=O)OCc2c1cc1n(c2=O)Cc2cc3c(N)c(OC)ccc3nc2-1`, for which the GI50 is 0.0445 µM in assay [2]; 0.0403 µM in assay [3]; 0.0739 µM in assay [4]; 0.0251 µM in assay [5]; less than 0.01 µM in assay [6]; 0.0213 µM in assay [7]. Moreover, the GI50 in assay [8] is 0.0152 µM; in assay [10], 0.0139 µM; in assay [9], less than 0.01 µM. Further, the TGI is 1.91 µM in [2]; 0.339 µM in [3]; 0.234 µM in assay [4]; 0.796 µM in assay [5]; 0.201 µM in assay [6]; 0.142 µM in [7]. Further, the TGI in [10] turned out to be 0.0932 µM; in assay [9], 0.037 µM.
Turning to `NNC(=O)C(=O)N/N=C1\CCCC1C(=O)CCC(=O)Nc1cccc(Cl)c1` (stereo not drawn), the TGI in assay [1], in [2], in [3], in [4], in assay [6] and in assay [7] was more than 100 µM throughout. For the same molecule, the TGI in assay [8] and in assay [9] was more than 100 µM each time.
For the molecule `Nc1ncnc2c1ncn2C1(CO)OC(CO)C(O)C1O` (stereo not drawn), the TGI in assay [1], in [2], in assay [3], in assay [4], in assay [5] and in assay [6] was more than 100 µM each time. The TGI in assay [7], in [8] and in assay [9] was more than 100 µM each time.
With `O=C1CC[C@@H]2[C@H]3CCC(=O)c4c3c(c3cccc(O)c3c4O)O[C@@]23C(=O)c2cccc(O)c2C(O)=C13`, the GI50 in assay [1], in assay [2], in assay [4], in [6], in assay [7] and in assay [8] was more than 100 µM in each case. For the same molecule, the GI50 in [10] and in [9] was more than 100 µM each time. Moreover, the TGI in assay [1], in [2], in assay [4], in assay [6], in [7] and in assay [8] was more than 100 µM each time. For the same molecule, the TGI in assay [10] and in assay [9] was more than 100 µM throughout.
Take `Nc1ccccc1SC(CC(=O)c1ccccc1)c1c(Cl)cccc1Cl` (stereo not drawn): the GI50 in [1] was 1.81 µM; in assay [2] it was 21.8 µM; in assay [3], 3.25 µM; in assay [4], 9.17 µM; in [5] it was 4.9 µM; in [6] it was 4.24 µM. For the same molecule, the GI50 was 3.43 µM in assay [8], 6.17 µM in assay [10] and 6.82 µM in [9]. The TGI amounted to 4.56 µM in assay [1]; 58.1 µM in [2]; 12.9 µM in [3]; 21.2 µM in assay [4]; 39.9 µM in assay [5]; 15.3 µM in assay [6]. Also, the TGI in assay [8] amounted to 13.4 µM; in [10] it was 20.5 µM; in [9] it was 27.7 µM.
Take `O=C(Nc1cccc2[nH]c(C(F)(F)F)nc12)c1ccc(Br)cc1F`: the GI50 in assay [1] was 3.16 µM; in [2] it was 3.27 µM; in assay [3], 3.83 µM; in assay [4], 1.85 µM; in assay [5], 2.89 µM; in assay [7], 3.12 µM. Besides, the GI50 in [8] is 4.17 µM; in assay [10], 3.26 µM; in assay [9], 2.43 µM. Moreover, the TGI is 11.4 µM in [1]; 13.3 µM in [2]; 14.5 µM in assay [3]; 3.94 µM in assay [4]; 15.7 µM in [5]; 10.6 µM in assay [7]. For the same molecule, the TGI came out at 21.4 µM in [8], 11.6 µM in assay [10] and 8.88 µM in assay [9].
With `O=C1C=C(c2ccccc2)NC1(c1ccccc1)c1cc(-c2ccccc2)[nH]c1-c1ccccc1` (stereo not drawn), the TGI in assay [1], in assay [2], in assay [3], in [5], in [6] and in [7] was more than 100 µM each time. For the same molecule, the TGI in assay [10] was more than 100 µM; in assay [9], 19 µM.
For `CN(COC(=O)C(C)(C)C)c1nc(N(C)COC(=O)C(C)(C)C)nc(N(C)COC(=O)C(C)(C)C)n1`, the TGI is 39.3 µM in assay [1]; more than 100 µM in assay [2]; 47.6 µM in assay [3]; more than 100 µM in assay [4]; more than 100 µM in assay [5]; more than 100 µM in [7]. Also, the TGI in [8], in [10] and in assay [9] was more than 100 µM in each case.
Consider `O=C1c2ccccc2C(=O)N1CCN(CCN1C(=O)c2ccccc2C1=O)Cc1ccccc1`, for which the TGI in [1], in [2], in assay [3], in [4], in assay [5] and in assay [6] was more than 100 µM in each case. Also, the TGI in assay [7], in assay [8] and in assay [9] was more than 100 µM each time.
With `O=[N+]([O-])C(=C1c2ccccc2-c2ccccc21)[N+](=O)[O-]`, the TGI in [1] is more than 100 µM; in [2], more than 100 µM; in assay [3] it was more than 100 µM; in assay [5], more than 100 µM; in [6], more than 100 µM; in [7] it was more than 10 µM. The TGI in [8] was 84.8 µM; in assay [10], more than 100 µM; in assay [9], more than 100 µM.
Regarding `O=S(=O)([O-])c1ccc(C=Nc2ccccc2)c([O-])c1.O=S(=O)([O-])c1ccc(C=Nc2ccccc2)c([O-])c1.[Co+2]`, the GI50 in assay [2] was 55.2 µM; in assay [3] it was 6.5 µM; in [7], more than 100 µM; in [8] it was 5.18 µM; in assay [10], 32.6 µM. Moreover, the TGI in assay [2], in assay [3], in assay [7], in [8] and in assay [10] was more than 100 µM each time.
Consider `O=S(=O)(c1ccccc1)C1(C2(S(=O)(=O)c3ccccc3)CCN=N2)CCN=N1` (stereo not drawn), for which the TGI in assay [1], in [2], in assay [3], in assay [5], in assay [6] and in assay [7] was more than 100 µM throughout. For the same molecule, the TGI in [8] and in assay [10] was more than 100 µM throughout.
As for `Cc1ccccc1-c1cc(=O)c2cc(C)c(C)c(C(=O)O)c2o1`, the TGI in assay [1], in assay [2], in [3], in assay [4], in assay [5] and in [6] was more than 100 µM throughout. Besides, the TGI in assay [7], in assay [10] and in assay [9] was more than 100 µM throughout.
For the molecule `COc1cc(Br)c(C=Nc2cccc3ccc(OS(=O)(=O)c4ccc([N+](=O)[O-])cc4)cc23)cc1OC`, the TGI in [1], in assay [2], in assay [4], in [5], in assay [6] and in [7] was more than 100 µM each time. For the same molecule, the TGI in assay [8], in assay [10] and in assay [9] was more than 100 µM in each case.
On to `Cc1nc2ccccc2c(/C=C/c2ccc(C(F)(F)F)cc2)c1C(=O)/C=C/c1ccccc1`, for which the GI50 is 0.521 µM in [1]; 1.79 µM in assay [2]; 1.69 µM in assay [4]; 1.23 µM in [5]; 1.47 µM in assay [6]; 1.72 µM in assay [10]. The GI50 in [9] is 1.64 µM. For the same molecule, the TGI in assay [1] worked out at 2.03 µM; in assay [2], 4.73 µM; in assay [4] it was 3.05 µM; in assay [5], 2.51 µM; in assay [6] it was 2.92 µM; in assay [10], 3.13 µM. In addition, the TGI in assay [9] is 3.16 µM.
Turning to `COc1ccc(C2=NC(CO)[C@H](c3ccccc3)O2)cc1OC` (stereo partly drawn), the TGI in [1], in assay [2], in assay [3], in [4], in assay [5] and in assay [8] was more than 100 µM each time. The TGI in assay [10] and in assay [9] was more than 100 µM throughout.
Regarding `Cc1c(C(=O)Nc2ccc(Oc3ccnc4cc(OCC(C)(C)O)ccc34)c(F)c2)c(=O)n(-c2ccccc2)n1C`, the GI50 in [3] was 2.47 µM; in assay [6] it was 8.86 µM; in [8], 6.37 µM; in assay [10] it was 1.46 µM; in [9], 19.4 µM. Further, the TGI in assay [3], in assay [6], in assay [8], in assay [10] and in assay [9] was more than 100 µM each time.
As to `CC[P+](C)(C)CC`, the TGI in [1], in assay [2], in assay [3], in [4], in [6] and in [7] was more than 100 µM throughout. Also, the TGI in assay [8], in [10] and in assay [9] was more than 100 µM in each case.
Turning to `CC(C)(C)c1ccc(OCCCCCCCN2CCNCC2)cc1`, the GI50 in assay [2] was 1.72 µM; in [3] it was 1.55 µM; in [4], 1.82 µM; in assay [5], 1.46 µM; in assay [6], 1.51 µM; in [7] it was 4.28 µM. In addition, the GI50 in assay [8] was 2.36 µM; in assay [9], 1.3 µM. Moreover, the TGI in [2] was determined as 3.6 µM; in assay [3] it was 3.02 µM; in [4], 3.4 µM; in assay [5], 2.81 µM; in assay [6], 3.05 µM; in assay [7], 17.6 µM. Further, the values for the TGI in [8] and in [9] were 6.65 µM and 2.92 µM, respectively.
Regarding `COc1ccc(C)cc1-c1ccc(-c2cc(C)ccc2OC)o1`, the TGI in assay [1], in assay [2], in assay [3], in assay [5], in assay [6] and in [7] was more than 100 µM in each case. The TGI in [8], in [10] and in assay [9] was more than 100 µM in each case.
For `Cc1ccc(-c2csc3ncnc(Nc4cccc(O)c4)c23)cc1`, the GI50 in assay [1] is 20 µM; in assay [2], 41.8 µM; in assay [3], 17.9 µM; in assay [4], 22.8 µM; in assay [6], 22.5 µM; in assay [7], 22.6 µM. The GI50 is more than 100 µM in [8], 37.7 µM in assay [10] and 21.8 µM in assay [9]. For the same molecule, the TGI in [1] came out at 39.6 µM; in assay [2], 92.5 µM; in assay [3], 37.3 µM; in [4] it was 51.2 µM; in assay [6], 58.6 µM; in [7], 46.5 µM. The TGI in assay [8] is more than 100 µM; in [10], more than 100 µM; in assay [9] it was 49.6 µM.
On to `O=C(O)CC(CC(=O)O)n1cccc1`, for which the TGI in assay [1], in [2], in [3], in [4], in [5] and in assay [6] was more than 100 µM throughout. In addition, the TGI in [7], in [10] and in [9] was more than 100 µM each time.
